Experimental findings from publication PMC6804243, “Small-Molecule Inhibition of UBE2T/FANCL-Mediated Ubiquitylation in the Fanconi Anemia Pathway” (ACS Chemical Biology, 2019) are described below.

One assay deals with T1, UBE2D1 / GST-RNF8.
T1 construct: His6 (N); made in house; host or cells: E. coli Rosetta (DE3)
Nature of the assay: Gel-based ubiquitylation assay, E2 = UBE2D1, E3 = GST-RNF8. The settings on record: 10 min at 37 °C, Western blot. The assay is classed as biochemical. The method, then:
Figure 2 Gel-based ubiquitylation assays with confirmed HTRF hits. […] Western blots (WB) probed for GST or biotin as labeled. Reactions contained 20 nM His6-UBE1, 50 nM E2, 250 nM GST-E3, 500 nM biotinylated ubiquitin: (a) E2 = UBE2T, E3 = GST-FANCLRING, 30 min of reaction at 37 °C; (b) E2 = UBE2D1, E3 = GST-FANCLRING, 30 min of reaction at 37 °C; and (c) E2 = UBE2D1, E3 = GST-RNF8, 10 min of reaction at 37 °C.
A further ubiquitylation assay was performed with an alternative E3, RNF8, which also plays important roles in the DDR.[14] In contrast to GST-FANCLRING, long polyubiquitin chains were attached to GST-RNF8 by UBE2D1 (Figure 2c).
(§1) Purified protein was concentrated using a Vivaspin-6 concentrator with a 10 kDa MW cut-off (Vivascience) and flash-frozen in small aliquots for storage at […]
(§2) Cy5 labelling of ubiquitin. To a 5 mg/mL solution of recombinant human ubiquitin (Boston Biochem) in 0.1 M NaHCO3 pH 8.3, was added a 4-fold molar excess of Cyanine5 NHS ester (Lumiprobe). The reaction was incubated at 23 °C for 4 hours in the dark. The protein was separated from unreacted dye by passage through a PD-10 desalting column (GE Healthcare) equilibrated with PBS. Purified protein was concentrated using a Vivaspin-6 concentrator with a 3 kDa MW cut-off (Vivascience) and flash-frozen in small aliquots for storage […]
(§3) Homogeneous Time-Resolved Fluorescence (HTRF) Assay. GST-FANCLRING (200 nM) was incubated with anti-GST Tb (CisBio, #61GSTTL) (2.5 ng final) at room temperature for 30 minutes in assay buffer (50 mM Tris-HCl pH 8.0, 1 mM TCEP, 5 mM MgCl2, 0.005% Tween-20). Meanwhile, 10 μL of UBE2T in assay buffer (or assay buffer alone for no enzyme controls) was incubated in a white 384-well plate (Corning) with 20 nL DMSO or compound in DMSO. After 30 minutes, the GST-RINGRING solution was added to an equal volume solution containing His-UBE1 (Boston Biochem) (16 nM), Cy5-ubiquitin (400 nM), ATP (0.8 mM) in assay buffer. 10 μL of this solution was immediately added to each well of the 384 -well plate containing UBE2T or buffer. F inal concentrations: His -UBE1 (4 nM), UBE2T (6 nM), GST -RINGRING (50 nM), Cy5-ubiquitin (100 nM), ATP (0.2 mM), compound (10 or 20 μM) in 0.1 %
(§4) (v/v) DMSO. After a 10 minute incubation at 23 °C, 5 µL of a 50 mM EDTA solution were added to each well to stop the reaction. Signal was measured at λEx 340 nm and λEm 665 nm and 620 nm using a PHERAstar FS plate reader
(§5) (BMG Labtech). A ratio was calculated as [λEm(665)/λEm(620)] × 104 for each well and this was used to determine the percent inhibition for test compounds.
Gel-based ubiquitylation assays. Assays were carried out in a total volume of 10 µL containing 20 nM His6-UBE1 (Boston Biochem), 50 nM UBE2T, 250 nM GST-E3 and 500 nM biotinylated ubiquitin (Boston Biochem) in buffer (50 […]
Reaction mixtures were incubated for the indicated time at 37 °C and stopped by the addition of 2X reducing SDS -PAGE sample buffer, separated on NuPAGE Novex 4 –12% Bis/Tris gradient gels (Invitrogen) and visualized by Western blotting using the indicated antibodies (Table S3).
Cell culture. U2OS cells were cultured at 37 °C in a humidified atmosphere and 5% (v/v) CO2 in Dulbecco's Modified Eagle Medium (DMEM; Sigma-Aldrich) supplemented with 10% (v/v) fetal bovine serum (FBS), 100 units/ml of penicillin, […] of streptomycin and 292 μg/mL L-glutamine.
Cell extract preparation and immunoblotting. U2OS cells were lysed in buffer containing 50 mM Tris-HCl pH 7.5, 2% SDS, 10 mM NEM, cocktail protease inhibitor (Roche) and phosphatase inhibitor cocktail followed by sonication 100 µg of extracts were boiled for 5 mins at 95 °C in 5X loading buffer and loaded onto NuPAGE Novex 4–12% Bis/Tris gradient gels
(Invitrogen), or NuPAGE Novex 3-8% Tris/Acetate gradient gels (Invitrogen) for detection of mUb-FANCD2. After separation the gels were transferred to PVDF and the membranes were blocked with Tris-buffered saline containing 0.1% (v/v) Tween-20 (TBST) and 5% (v/v) bovine serum albumin (BSA) and […]

The target in assay [1] is T2, UBE2T/FANCLRING (ubiquitylation of GST-FANCLRING) (Homo sapiens, UniProt Q9NW38).
T2 sequence (Q9NW38 275-375 limits assumed): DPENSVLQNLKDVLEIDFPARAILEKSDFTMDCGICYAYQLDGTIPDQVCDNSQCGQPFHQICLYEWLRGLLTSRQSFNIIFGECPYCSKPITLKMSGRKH
As to the kind of experiment: biochemical. The settings on record: for LE: ligand efficiency = 1.4(–logIC50)/HAC; for inhibition at 20 µM: read-out: Primary screen % Inhibition (20 M).
Text: To identify small-molecule inhibitors of the FA pathway, we developed a high-throughput screen (HTS) compatible assay based on the FA ubiquitylation cascade (see Figure 1a, as well as Figure S1 in the Supporting Information). Given the complexity of the full FA ubiquitylation cascade, we constructed a simplified ubiquitylation reaction that would be robust for HTS purposes yet still provide many relevant protein species for small molecules to interact with. The recombinant protein assay developed used homogeneous time-resolved fluorescence (HTRF) and contained Cy5-labeled ubiquitin, the E1 enzyme UBE1, the E2 enzyme UBE2T, and the RING domain (residues 275–375) of the E3 FANCL (FANCLRING). FANCLRING was used as a surrogate substrate for ubiquitylation in the absence of the FA core and FANCD2/FANCI complexes.
Figure 1 Screening for inhibitors of the FA pathway. (a) Schematic of the HTRF ubiquitylation assay. Ubiquitylation of GST-tagged E3 (FANCLRING) by the E2 (UBE2T) places Cy5-labeled ubiquitin in close proximity to the anti-GST Tb cryptate. Excitation of the Tb cryptate donor results in FRET to the Cy5 acceptor. Simultaneous monitoring of the donor emission (620 nm) and acceptor emission (665 nm) allows for determination of the 665/620 ratio. (b) HTRF screen results showing average inhibition (n = 2) produced by compounds at 20 μM (in-house diversity library; 10 111 compounds) and 10 μM (Selleckchem epigenetic library; 119 compounds). Numbers given in parentheses represent the number of compounds per inhibition threshold.
as §1, §2, §3, §4, §5
Gel-based ubiquitylation assays. Assays were carried out in a total volume of 10 µL containing 20 nM His6-UBE1 (Boston Biochem), 50 nM UBE2T, 250 nM GST-E3 and 500 nM biotinylated ubiquitin (Boston Biochem) in buffer (50

[2] abbreviates: library stock, 10-point dose-response, read-out: Primary screen IC50.
The mark [3] stands for this setting: printed beside the structures in Figure S3, read-out: IC50 (Figure S3).

Each structure is given as a SMILES string. Entries after “also recorded” stand apart in the source; their conditions may differ. Like-named read-outs stand apart in the source and are kept apart here.

`NCCN1C(=O)CC[C@H]2CN(Cc3cccc(-c4ccco4)c3)CC[C@H]21` [CU1]: the “ubiquitylation of GST-RNF8 and UBE2D1” value with UBE2D1 / GST-RNF8 is “but not GST-RNF8”; in the assay on UBE2D1 / GST-RNF8 (listed as CU 1), “no detectable effects on ubiquitylation of GST-RNF8 and UBE2D1”. Besides, the IC50 was 15.2 µM in assay [1] (setting [2]) and 56 µM in assay [1] (setting [3]). In assay [1], this compound yielded an LE of 0.23. In assay [1], the inhibition at 20 µM was determined as 48.4%.

With `CCN1CCN(c2cc(C)nc3nc(CN4CCCCC4C)nn23)CC1` (stereo not drawn) [CU2], the “ubiquitylation of GST-RNF8 and UBE2D1” value in the assay with UBE2D1 / GST-RNF8 is “but not GST-RNF8; also recorded: no detectable effects on ubiquitylation of GST-RNF8 and UBE2D1”. The IC50 in assay [1] (setting [2]) amounted to 8.4 µM; in assay [1] (setting [3]), 14.8 µM. In assay [1], this compound showed an LE of 0.26. For the same compound, in assay [1], the inhibition at 20 µM turned out to be 63.4%.

Regarding `Cc1nnc(N(C)CC2CCN(CC(C)O)CC2)c(C#N)c1C` (stereo not drawn) [CU9], the “ubiquitylation of GST-RNF8 and UBE2D1” value in the assay with UBE2D1 / GST-RNF8 is “but not GST-RNF8; also recorded: no detectable effects on ubiquitylation of GST-RNF8 and UBE2D1”. In assay [1] (setting [2]), the IC50 was found to be 31.4 µM. Besides, in assay [1], the LE came to 0.26 and the inhibition at 20 µM came out at 48.2%. Moreover, the IC50 in assay [1] (setting [3]) stood at 45.4 µM.

As to `NC(=O)[C@@H]1CCCN1C(=O)c1cc(-n2cccc2)ccc1Cl` [CU12], the “ubiquitylation of GST-RNF8 and UBE2D1” value in the assay with UBE2D1 / GST-RNF8 was “appeared to inhibit the ubiquitylation of all species in the assay”. Besides, the IC50 in assay [1] (setting [2]) is 11.5 µM; in assay [1] (setting [3]) it was 9.9 µM. This compound showed an LE in assay [1] of 0.32. Besides, the inhibition at 20 µM in assay [1] (primary screen, compound at 20 μM (head prints '20 M'), n = 2) was 107%.
